Read-outs that look alike come from different tables or passages of the source.
How the values were obtained:
[1] = system: HBV replication; assay: qPCR HBV replication inhibition assay in HepDES19 cells; format: cell-based, Hepatitis B virus (HBV) genotype D; settings: Hepatitis B virus, 72 h, (+) DNA qPCR, read-out: EC50
Method: (§1) HepDES19 cells were incubated on collagen-coated plates at 37 °C with 5% CO2 and saturating humidity in Dulbecco’s modified Eagle’s medium (DMEM/F12) (Cytiva Life Sciences, Marlborough, MA, USA) supplemented with 10% fetal bovine serum (FBS), penicillin (100 IU/mL), and streptomycin (100 µg/mL). HepDES19 cells are HepG2 cells that carry a stably transfected HBV genotype D genome under the control of a tetracycline repressible promoter. Cells were maintained in the presence of 1 µg/mL tetracycline to repress the expression of the stably integrated HBV genome, and HBV replication was induced by the withdrawal of tetracycline from the culture medium.
HBV replication inhibition was measured in HepDES19 cells induced to replicate HBV by the removal of tetracycline using a strand-preferential quantitative PCR assay as previously described. Cells were seeded at 4 × 10^4 cells/well in 96-well plates for 48 h. Serially diluted compound was then added to cells at a final concentration of 1% DMSO for 72 h, after which the cells were lysed and qPCR was performed as described in Li et al.. EC50 values were calculated from the (+) DNA data with GraphPad Prism using the four-parameter log (inhibitor) versus response algorithm with the bottom value set to zero. Three or more replicate assays were performed on different days.

[2] = MTS cytotoxicity assay; format: cell-based; settings: human, HepDES19 cells
Method: as §1
(§2) Cell viability was assessed using the CellTiter 96^TM Aqueous Non-Radioactive Cell Proliferation assay (MTS) (Promega, Madison, WI, USA) as described previously. HepDES19 cells were seeded at 1 × 10^4 cells per well in 96-well, and compound was added after 48 h. Cells incubated with serially diluted compound (1% DMSO) for 72 h. Bac absorbance values were subtracted, and data were converted to percent cell viability. The cytotoxic concentration 50% (CC50) values were calculated with GraphPad Prism by using the four-parameter variable response log (inhibitor) versus response algorithm with the bottom value set to zero. Three or more replicate assays were performed on different days.

[3] = system: HepDES19 cells; assay: MTS cytotoxicity assay; format: cell-based; settings: 72 h
Method: as §1, §2

[4] = Solubility limit assay (turbidity, DMEM-F12 + 10% FBS); format: physicochemical; settings: DMEM-F12 without phenol red with 10% FBS, plasma or biological fluid, kinetic from dmso stock; pH 7.4, DMEM-F12 with 10% FBS, 1% DMSO, upper limit 200 µM
Method: Compound solubility limits were tested in DMEM-F12 without phenol red (Gibco, Grand Island, NY, USA) supplemented with 10% FBS (pH 7.2–7.4) to mimic cell culture experiments, as we have performed previously. Compounds were serially diluted in buffer at pH 7.4 in 384-well, optically clear plates (upper limit 200 µM, DMSO 1%) and read on a plate reader at 620 nm. Compound concentration (µM) was plotted against optical density (OD) and a solubility limit was determined by identifying an inflection point where there was a significant increase in optical density due to increasing turbidity; the concentration of the compound at the inflection point was defined as the solubility limit. Two or more replicate assays were performed on different days for each compound.

[5] = Parallel artificial membrane permeability assay; format: in vitro ADME; settings: PAMPA; for Papp interpretation (high/low permeability category) at 2 h, 200 µM: pH 7.4, pH 7.4; for Papp at 2 h, 200 µM: pH 7.4, pH 7.4, 200 μM, room temperature
Method: Apparent passive permeability (Papp) was assessed at pH 7.4 using a 96-well donor/acceptor cassette (Sigma Aldrich, Burlington, MA, USA), which mimics the apical and basolateral sides of the small intestine epithelium, as we have described previously. Briefly, an artificial membrane composed of 1% w/v lethicin/dodecane was added to the poly (vinylidene fluoride) (PVDF) membrane filter. Once dry, compounds (200 μM) were diluted in buffer at pH 7.4 and added to the donor side of the membrane, and the same pH buffer was added to the acceptor side. The cassette was assembled and incubated at room temperature with shaking at 250 rpm for 2 h, after which 100 μL of the acceptor well was retrieved and the experimental compound absorbance was read on a plate reader between 200 and 600 nm. Compound Papps (cm/s) values were determined by normalizing to the compound absorbance at equilibrium, incubation time, and membrane porosity Two or more replicate assays were conducted on different days.

[6] = system: HBV replication; settings: Figures 1 and 2, earlier inhibitors; cited from earlier work
[7] = system: HepDES19 cells; parameters: method as in PMID 28450058, PMID 28633989, PMID 29565562, PMID 30768944; settings: Figures 1 and 2, earlier inhibitors; cited from earlier work

Structure (SMILES) | EC50 [1] | CC50 at 72 h [2] | CC50 [3] | solubility [4] | Papp interpretation (high/low permeability category) at 2 h, 200 µM [5] | Papp at 2 h, 200 µM [5] | melting point | EC50 [6] | CC50 [7]
COC(=O)c1ccc(CON=C(C)c2c(C)cc(=O)n(O)c2O)cc1 [Compound 47, 4′-((((1′-(1,2-Dihydroxy-4-methyl-6-oxo-1,6-dihydropyridin-5-yl)ethylidene)amino)oxy)methyl)methyl benzoate] | 1.1 ± 0.4 µM | 100 µM | minimally cytotoxic | > 200 µM | > 1 ×10⁻⁶ cm/s | 5.52 ×10⁻⁶ cm/s | 120 °C (dec.) |  | 
CC(=NOC(C)c1ccccc1)c1c(C)cc(=O)n(O)c1O (stereo not drawn) [Compound 46, 1,6-Dihydroxy-4-methyl-5-(1-((1-phenylethoxy)imino)ethyl)pyridin-2(1H)-one] | 3.1 ± 0.5 µM | 100 µM |  | > 200 µM | > 1 ×10⁻⁶ cm/s | 3.19 ×10⁻⁶ cm/s | 130 to 132 °C |  | 
CC(=NOC(CNC(=O)c1ccco1)c1cc(F)cc(F)c1)c1c(C)cc(=O)n(O)c1O (stereo not drawn) [Compound 37, N-(2-(3,5-Difluorophenyl)-2-(((1-(1,2-dihydroxy-4-methyl-6-oxo-1,6-dihydropyridin-3-yl)ethylidene)amino)oxy)ethyl)furan-2-carboxamide] | 4.7 ± 3 µM | 100 µM |  | 175 µM | > 1 ×10⁻⁶ cm/s | 4.96 ×10⁻⁶ cm/s | 118 to 120 °C (dec.) |  | 
CSc1ccc(CON=C(C)c2c(C)cc(=O)n(O)c2O)cc1 [Compound 33, 1,6-Dihydroxy-4-methyl-5-(1-(((4(methylthio)benzyl)oxy)imino)ethyl)pyridin-2(1H)-one] | 1.4 ± 0.7 µM | 100 µM |  | > 200 µM | > 1 ×10⁻⁶ cm/s | 4.35 ×10⁻⁶ cm/s | 110 to 115 °C (dec.) |  | 
NCc1ccc(-c2ccc(Cc3cc(=O)n(O)c4ncccc34)cc2)cc1 [HNO] |  |  |  |  |  |  |  | 3.4 µM | 7.1 µM
CC(=NOC(CNC(=O)c1nccs1)c1cc(F)cc(F)c1)c1c(C)cc(=O)n(O)c1O (stereo not drawn) [Compound 50, N-(2-(3,5-Difluorophenyl)-2-(((1-(1,2-dihydroxy-4-methyl-6-oxo-1,6-dihydropyridin-3-yl)ethylidene)amino)oxy)ethyl)thiazole-2-carboxamide] | 4 ± 1.5 µM | 100 µM |  | > 200 µM | > 1 ×10⁻⁶ cm/s | 4.67 ×10⁻⁶ cm/s | 117 to 119 °C (dec.) |  | 
C#CCCCON=C(C)c1c(C)cc(=O)n(O)c1O [Compound 40, 1,6-Dihydroxy-4-methyl-5-(1-((pent-4-yn-1-yloxy)imino)ethyl)pyridin-2(1H)-one] | 2.5 ± 0.6 µM | 53.6 ± 31.4 µM |  | > 200 µM | > 1 ×10⁻⁶ cm/s | 3.36 ×10⁻⁶ cm/s | 93 to 95 °C (dec.) |  | 
CC(=NOC(c1cc(F)cc(F)c1)c1ccccn1)c1c(C)cc(=O)n(O)c1O (stereo not drawn) [Compound 38, 5-(1-(((3,5-Difluorophenyl)(pyridin-2-yl)methoxy)imino)ethyl)-1,6-dihydroxy-4-methylpyridin-2(1H)-one] | 2.3 ± 0.2 µM | 47.1 ± 21.7 µM |  | 167 µM | > 1 ×10⁻⁶ cm/s | 2.61 ×10⁻⁶ cm/s | 102 to 104 °C (dec.) |  | 
COc1ccc(CON=C(C)c2c(C)cc(=O)n(O)c2O)cc1 [A24] |  |  |  |  |  |  |  | 0.29 µM | 102 µM
COC(=O)c1c2c(cc(O)c(=O)c1O)COC2=O [a-HT] |  |  |  |  |  |  |  | 0.5 µM | > 77 µM
C#CCON=C(C)c1c(C)cc(=O)n(O)c1O [Compound 42, 1,6-Dihydroxy-4-methyl-5-(1-((prop-2-yn-1-yloxy)imino)ethyl)pyridin-2(1H)-one] | 5.4 ± 2.2 µM | 81.7 ± 18.6 µM |  | 167 µM | > 1 ×10⁻⁶ cm/s | 3.74 ×10⁻⁶ cm/s | 78 to 80 °C (dec.) |  | 
COC(=O)c1ccc(CON=C(C)c2c(C)cc(=O)n(O)c2O)c(F)c1 [Compound 45, Methyl 4-((((1-(1,2-dihydroxy-4-methyl-6-oxo-1,6-dihydropyridin-3-yl)ethylidene)amino)oxy)methyl)-3-fluorobenzoate] | 3.2 ± 0.4 µM | 90.2 ± 13.8 µM |  | > 200 µM | > 1 ×10⁻⁶ cm/s | 3.54 ×10⁻⁶ cm/s | 130 °C (dec.) |  | 
CC(=NOCc1ccc([N+](=O)[O-])cc1)c1c(C)cc(=O)n(O)c1O [Compound 48, 1,6-Dihydroxy-4-methyl-5-(1-(((4-nitrobenzyl)oxy)imino)ethyl)pyridin-2(1H)-one] | 1.1 ± 0.2 µM | 99.6 ± 0.6 µM | minimally cytotoxic | > 200 µM | > 1 ×10⁻⁶ cm/s | 5.38 ×10⁻⁶ cm/s | 105 to 107 °C |  | 
CC(=NOCc1ccc(O)cc1)c1c(C)cc(=O)n(O)c1O [Compound 39, 1,6-Dihydroxy-5-(1-(((4-hydroxybenzyl)oxy)imino)ethyl)-4-methylpyridin-2(1H)-one] | 5.2 ± 0.9 µM | 91.1 ± 14.3 µM |  | > 200 µM | > 1 ×10⁻⁶ cm/s | 5.21 ×10⁻⁶ cm/s | 98 to 100 °C (dec.) |  | 
O=C(Nc1ccc2c(c1)C(=O)N(O)C(=O)C2C(=O)NCc1ccc(F)cc1)c1ccccc1 (stereo not drawn) [HID] |  |  |  |  |  |  |  | 1.4 µM | 99 µM
CC(=NOC(CNC(=O)c1ccc2ccccc2n1)c1cc(F)cc(F)c1)c1c(C)cc(=O)n(O)c1O (stereo not drawn) [Compound 49, N-(2-(3,5-Difluorophenyl)-2-(((1-(1,2-dihydroxy-4-methyl-6-oxo-1,6-dihydropyridin-3-yl)ethylidene)amino)oxy)ethyl)quinoline-2-carboxamide] | 3.5 ± 0.8 µM | 99.9 ± 0.2 µM |  | > 200 µM | > 1 ×10⁻⁶ cm/s | 6.71 ×10⁻⁶ cm/s | 108 to 110 °C (dec.) |  | 
C/C(=N\c1cccc(Br)c1)c1c(C)cc(=O)n(O)c1O [HPD imine] |  |  |  |  |  |  |  | 1.1 µM | 62.3 µM
